Values after ≈ are worked out from the molar mass of the structure shown.
How the values were obtained:
[1] = Stability evaluation under influencing factors; assay type: physicochemical
Method: Appropriate amounts of crystal forms I, II. III, and the compound of formula (I) were taken and exposed to conditions of 60° C., RH (relative humidity) 92.5%, RH (relative humidity) 75%, and light, respectively. The samples were collected on day 30, and the purity of the samples and changes in XRPD were examined according to the 2020 edition of the Chinese Pharmacopoeia.

[2] = Solubility test in pH 4.5 acetate buffer solution; assay type: physicochemical
Method: Appropriate amounts of crystal forms I, II, III, and the compound of formula (I) were weighed and placed into 15 mL centrifuge tubes separately. A pH 4.5 acetate buffer was added to each tube to prepare saturated solutions. The tubes were sealed and placed in a water bath thermostatic oscillator to shake at 37° C. and a rotation speed of 200 rpm for 24 h. After centrifugation, the supernatants were collected and diluted to the corresponding multiples. The concentrations were measured. The detection was conducted according to the 2020 edition of the Chinese Pharmacopoeia.

[3] = Pharmacokinetic evaluation test in rats; assay type: in vivo, SD rats; settings: p.o. 100 mg/kg
Method: • Animals: male SD rats • Animal administration and sample collection: Crystal forms I, II, and III were each dissolved in a mixture of 20% PEG400+80% (20% Captisol in 0.5% MC) to prepare administration formulation suspensions. The administration formulations were intragastrically administered to the SD rats at a dose of 100 mg/kg. Blood samples were collected at time points of 15 min, 30 min, 1 h, 2 h, 4 h, 6 h, 8 h, 24 h, 48 h, 72 h, and […] after administration.
One day before administration, the animals underwent jugular vein catheterization. After administration, about 300 μL of blood samples were collected via the jugular vein and then placed into anticoagulation tubes containing EDTA-K2. The blood samples were centrifuged at 4° C. and 8000 rpm for 10 min to yield plasma samples, which were prepared within 30 min after blood sample collection. The plasma samples were stored in a refrigerator at −80° C. before tests.
The samples to be tested were taken out from the refrigerator at −80° C., naturally thawed at room temperature, and then vortexed for 5 min. 20 μL of each of the 20-fold diluted plasma samples was precisely pipetted into a 1.5 mL centrifuge tube, and 300 μL of an internal standard working solution at a concentration of 10 ng/mL was added. The mixture was uniformly mixed, vortexed for 5 min, and then centrifuged at 12000 rpm for 5 mun.
50 μL of the supernatant was precisely pipetted into a 96-well plate to which water was added at 150 μL/well in advance, uniformly mixed by vortexing for 5 min, and analyzed by LC-MS/MS.
The sample to be tested was taken out from the refrigerator at −80° C., naturally thawed at room temperature, and then vortexed for 5 min. 2 μL of the plasma sample was precisely pipetted and then added, together with 28 μL of blank plasma, to a 1.5 mL centrifuge tube, and 450 μL of an internal standard working solution (a solution of tolbutamide in acetonitrile) at a concentration of 100 ng/mL was added. The mixture was uniformly mixed, vortexed for 5 min, and then centrifuged at 12000 rpm for 5 min. 50 μL of the supernatant was precisely pipetted into a 96-well plate to which water was added at 150 μL/well in advance, uniformly mixed by vortexing for 5 min, and analyzed by LC-MS/MS.
The test compound concentrations were output by Analyst 1.7.1 of AB Sciex. Parameters such as mean, standard deviation, and coefficient of variation were calculated by Microsoft Excel. PK parameters were calculated by Pharsight Phoenix 8.2 software NCA (Tmax was in median).

[4] = Hygroscopicity test; assay type: physicochemical; settings: 25° C.±1° C.
Method: The experimental procedure was conducted in accordance with the guidelines for the hygroscopicity test of drugs in Chinese Pharmacopeia (2020 Edition). • 1. A dry glass weighing bottle with a stopper (outer diameter: 50 mm, height: 15 mm) was taken and placed in a thermostatic drier at 25° C.±1° C. (with a saturated ammonium chloride solution at the bottom) on the day before the test. After 24 h. the bottle was taken out, and its weight (m1) was precisely weighed. • 2. […] The total weight (m2) was precisely weighed. • 3. The weighing bottle was left open, and both the bottle and its bottle cap were placed under the constant temperature and humidity conditions described above for 24 h. • 4. The bottle was well sealed with its bottle cap, and the total weight (m3) was precisely weighed.
[formula] • 5. Hygroscopicity characteristics and hygroscopic weight gains are defined as follows. • deliquescent: sufficient water is absorbed to form a liquid; • extremely hygroscopic: the hygroscopic weight gain is not less than 15%; • hygroscopic: the hygroscopic weight gain is less than 15% but not less than 2%; • slightly hygroscopic: the hygroscopic weight gain is less than 2% but not less than 0.2%; • non-hygroscopic or almost non-hygroscopic: the hygroscopic weight gain is less than 0.2%.

[5] = male SD rats, mean, n = 3, 100 mg/kg

- Purity % ([1]; 0 day): 99.3%
- Crystal form identification (XRPD) ([1]; 60° C., 30 days): Consistent with day 0
- Purity % ([1]; 60° C., 30 days): 99.3%
- Crystal form identification (XRPD) ([1]; Light exposure, 30 days): Consistent with day 0
- Purity % ([1]; Light exposure, 30 days): 98.8%
- Crystal form identification (XRPD) ([1]; RH 75%, 30 days): Consistent with day 0
- Purity % ([1]; RH 75%, 30 days): 99.3%
- Crystal form identification (XRPD) ([1]; RH 92.5%, 30 days): Consistent with day 0
- Purity % ([1]; RH 92.5%, 30 days): 99.3%
- Change of crystal form (XRPD pattern) ([1]; all influencing factor conditions, 30 days): no changes in the crystal forms occurred
- Stability compared to the amorphous form ([1]; influencing factors, 30 days): higher stability
- Purity decrease ([1]; light exposure, 30 days vs day 0): 0.5%
- Solubility compared to the amorphous form [2]: higher solubility
- Solubility ([2]; saturated solution, 37° C., 200 rpm, 24 h): 375 µg/mL (≈ 591 µM)
- Pharmacokinetic properties ([3]; SD rats): very good pharmacokinetic properties
- AUCinf—obs [3, 5]: 2545.383 µg·h/mL
- AUClast [3, 5]: 2515.536 µg·h/mL
- Cmax ([3]; male, SD, rat, plasma, po, 100 mg/kg, male SD rats, mean, n = 3, read-out: Cmax): 145 µg/mL
- half-life ([3]; male, SD, rat, plasma, po, 100 mg/kg, male SD rats, mean, n = 3, read-out: tz1/2 (terminal half-life) (converted)): 7.74 h
- Tmax ([3]; male, SD, rat, plasma, po, 100 mg/kg, male SD rats, n = 3, Tmax in median, read-out: Tmax): 2 h
- 24 h percentage weight gain ([4]; saturated ammonium chloride solution): 0.34%
Compound: Nc1nccn2c(C34CCC(NC(=O)CN5CCOCC5)(CC3)C4)nc(-c3ccc(C(=O)Nc4cc(C(F)(F)F)ccn4)cc3)c12 (single isomer, unassigned) [Crystal form II, 4-(8-amino-3-(4-(2-morpholinoacetamido)bicyclo[2.2.1]heptan-1-yl)imidazo[1,5-a]pyrazin-1-yl)-N-(4-(trifluoromethyl)pyridin-2-yl)benzamide]
- Hygroscopicity characteristic ([4]; 24 h): slightly hygroscopic (the hygroscopic weight gain is less than 2% but not less than 0.2%)

— patent publication US20260167641A1, “CRYSTAL FORM OF IMIDAZOPYRAZINE DERIVATIVE, PREPARATION METHOD THEREFOR AND USE THEREOF” (TRANSTHERA SCIENCES (NANJING), INC., priority 2022, published 2026)
